Drawing on ChEMBL document CHEMBL3596159, “Beyond substrate analogues: new inhibitor chemotypes for glycosyltransferases” (Medchemcomm, 2014), this text covers IC50, Ki and MIC for nine compounds.

≈ marks a conversion by molar mass, not a printed value.

A short description of assay [1]: Inhibition of sialyltransferase (unknown origin). More on the design: species or system Homo sapiens.
Assay [2] has as its target Alpha-(1,3)-fucosyltransferase 4 (Homo sapiens, UniProt P22083). As to the kind of experiment: Inhibition of FucT-4 (unknown origin).
The target in assay [3] is T1, Beta-galactoside alpha-2,6-sialyltransferase 1 (Homo sapiens, UniProt P15907).
T1 sequence (P15907 whole entry): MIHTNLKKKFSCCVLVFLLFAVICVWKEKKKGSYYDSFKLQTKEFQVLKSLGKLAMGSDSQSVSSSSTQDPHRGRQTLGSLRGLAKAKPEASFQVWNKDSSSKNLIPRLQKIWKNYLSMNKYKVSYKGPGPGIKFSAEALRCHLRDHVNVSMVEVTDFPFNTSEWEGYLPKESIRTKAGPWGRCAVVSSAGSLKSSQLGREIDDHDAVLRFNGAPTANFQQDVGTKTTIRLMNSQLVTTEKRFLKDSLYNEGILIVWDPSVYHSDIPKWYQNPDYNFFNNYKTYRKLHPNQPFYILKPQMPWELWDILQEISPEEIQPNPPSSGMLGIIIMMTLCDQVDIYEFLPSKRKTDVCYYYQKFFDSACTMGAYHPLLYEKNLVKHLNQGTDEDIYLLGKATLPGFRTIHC
The assay is described as follows: Inhibition of ST6Gal 1 (unknown origin).

The target in assay [4] is T2, CMP-N-acetylneuraminate-beta-galactosamide-alpha-2,3-sialyltransferase 1 (Homo sapiens, UniProt Q11201).
T2 sequence (Q11201 whole entry): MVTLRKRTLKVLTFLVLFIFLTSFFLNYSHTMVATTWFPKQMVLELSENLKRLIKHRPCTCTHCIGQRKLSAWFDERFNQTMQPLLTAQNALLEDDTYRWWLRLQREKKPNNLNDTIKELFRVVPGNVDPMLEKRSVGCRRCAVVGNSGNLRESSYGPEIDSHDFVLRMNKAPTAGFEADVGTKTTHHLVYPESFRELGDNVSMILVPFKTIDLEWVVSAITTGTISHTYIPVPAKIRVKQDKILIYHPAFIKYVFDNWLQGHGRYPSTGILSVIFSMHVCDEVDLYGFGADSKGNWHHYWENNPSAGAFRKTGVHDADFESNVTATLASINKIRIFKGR
The assay is described as follows: Inhibition of ST3Gal 1 (unknown origin).

A short description of assay [5]: Inhibition of AAGlyB (unknown origin). More on the design: species or system Homo sapiens.
Assay [6] in a line: Inhibition of GTA (unknown origin). More on the design: species or system Homo sapiens.
For assay [7], the target named is Histo-blood group ABO system transferase (Homo sapiens, UniProt P16442). The assay is described as follows: Inhibition of GTB (unknown origin).
Sequence of Histo-blood group ABO system transferase (P16442 whole entry): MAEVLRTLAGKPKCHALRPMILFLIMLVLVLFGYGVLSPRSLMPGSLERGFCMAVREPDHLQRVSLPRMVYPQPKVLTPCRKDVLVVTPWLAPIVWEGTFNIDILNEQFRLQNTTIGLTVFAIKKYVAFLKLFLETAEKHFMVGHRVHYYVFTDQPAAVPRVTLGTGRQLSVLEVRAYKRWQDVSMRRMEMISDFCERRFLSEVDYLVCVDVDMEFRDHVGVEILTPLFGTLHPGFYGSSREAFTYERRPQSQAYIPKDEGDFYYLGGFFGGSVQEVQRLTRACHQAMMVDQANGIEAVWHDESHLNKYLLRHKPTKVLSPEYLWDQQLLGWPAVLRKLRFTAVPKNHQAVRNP
Assay [8] is described as follows: Inhibition of alpha-(1,3)-GalT (unknown origin). More on the design: species or system Homo sapiens.
A short description of assay [9]: Inhibition of Candida albicans chitin synthase.
Assay [10] in a line: Inhibition of bovine beta-1,4-GalT using alpha-Fucp-(1-2)-beta-Galp-O-(CH2)7-CH3 as acceptor and UDP-Gal as substrate by radiochemical assay. More on the design: species or system Bos taurus.
The target in assay [11] is T1, Beta-galactoside alpha-2,6-sialyltransferase 1. As to the kind of experiment: Inhibition of ST6N (unknown origin).
Assay [12] addresses T3, 4-galactosyl-N-acetylglucosaminide 3-alpha-L-fucosyltransferase FUT5 (Homo sapiens, UniProt Q11128).
T3 sequence (Q11128 whole entry): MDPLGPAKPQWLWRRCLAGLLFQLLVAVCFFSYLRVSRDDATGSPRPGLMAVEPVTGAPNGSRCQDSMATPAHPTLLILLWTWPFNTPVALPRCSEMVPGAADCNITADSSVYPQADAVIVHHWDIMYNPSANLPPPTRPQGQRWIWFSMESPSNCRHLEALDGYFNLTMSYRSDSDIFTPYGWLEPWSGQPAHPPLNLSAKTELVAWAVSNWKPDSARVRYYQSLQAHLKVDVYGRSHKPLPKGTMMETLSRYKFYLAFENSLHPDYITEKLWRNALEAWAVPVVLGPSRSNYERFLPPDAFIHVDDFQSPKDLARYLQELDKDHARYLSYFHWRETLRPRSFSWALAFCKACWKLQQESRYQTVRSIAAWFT
As to the kind of experiment: Non-competitive inhibition of FucT-5 (unknown origin) using LacNAc as acceptor substrate.

The target in assay [13] is T3, 4-galactosyl-N-acetylglucosaminide 3-alpha-L-fucosyltransferase FUT5. The assay is described as follows: Inhibition of FucT-5 (unknown origin).
Assay [14] has as its target T4, 4-galactosyl-N-acetylglucosaminide 3-alpha-L-fucosyltransferase FUT6 (Homo sapiens, UniProt P51993).
T4 sequence (P51993 whole entry): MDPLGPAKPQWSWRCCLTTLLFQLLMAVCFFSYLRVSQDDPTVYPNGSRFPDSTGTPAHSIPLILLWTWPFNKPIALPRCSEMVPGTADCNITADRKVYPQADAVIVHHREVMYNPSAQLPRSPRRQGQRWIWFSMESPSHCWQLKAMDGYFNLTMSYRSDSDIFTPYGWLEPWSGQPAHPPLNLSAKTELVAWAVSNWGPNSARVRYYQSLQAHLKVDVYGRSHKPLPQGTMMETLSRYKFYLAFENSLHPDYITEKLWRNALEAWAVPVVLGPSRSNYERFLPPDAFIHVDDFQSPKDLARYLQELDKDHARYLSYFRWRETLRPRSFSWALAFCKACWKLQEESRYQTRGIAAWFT
As to the kind of experiment: Inhibition of FucT-6 (unknown origin).

In assay [15] the target is T3, 4-galactosyl-N-acetylglucosaminide 3-alpha-L-fucosyltransferase FUT5. The assay is described as follows: Uncompetitive inhibition of FucT-5 (unknown origin) using GDP-fucose as donor substrate.
Assay [16] deals with T5, CMP-N-acetylneuraminate-beta-1,4-galactoside alpha-2,3-sialyltransferase (Homo sapiens, UniProt Q11203).
T5 sequence (Q11203 whole entry): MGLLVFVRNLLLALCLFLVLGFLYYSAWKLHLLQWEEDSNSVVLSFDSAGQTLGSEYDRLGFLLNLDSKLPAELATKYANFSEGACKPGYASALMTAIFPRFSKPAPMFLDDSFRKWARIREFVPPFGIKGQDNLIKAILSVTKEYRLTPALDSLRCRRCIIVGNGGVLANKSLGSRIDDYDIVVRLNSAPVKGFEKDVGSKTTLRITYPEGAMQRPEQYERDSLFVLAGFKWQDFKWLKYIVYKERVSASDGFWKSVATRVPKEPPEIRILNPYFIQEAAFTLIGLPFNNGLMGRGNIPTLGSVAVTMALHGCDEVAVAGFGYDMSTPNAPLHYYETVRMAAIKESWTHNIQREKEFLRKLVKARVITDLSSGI
The assay is described as follows: Inhibition of ST3N (unknown origin).

Assay [17] can be described thus: Inhibition of beta-1,4-GalT (unknown origin). More on the design: species or system Homo sapiens.
A short description of assay [18]: Inhibition of methicillin-resistant Staphylococcus aureus MurG.
The next assay concerns Staphylococcus aureus. As to the kind of experiment: Antimicrobial activity against methicillin-resistant Staphylococcus aureus. Format: functional.
Assay [19] deals with Beta-galactoside alpha-2,6-sialyltransferase 1 (Rattus norvegicus, UniProt P13721). The assay is described as follows: Inhibition of rat ST6Gal1.
Sequence of Beta-galactoside alpha-2,6-sialyltransferase 1 (Rattus norvegicus, UniProt P13721) (P13721 whole entry): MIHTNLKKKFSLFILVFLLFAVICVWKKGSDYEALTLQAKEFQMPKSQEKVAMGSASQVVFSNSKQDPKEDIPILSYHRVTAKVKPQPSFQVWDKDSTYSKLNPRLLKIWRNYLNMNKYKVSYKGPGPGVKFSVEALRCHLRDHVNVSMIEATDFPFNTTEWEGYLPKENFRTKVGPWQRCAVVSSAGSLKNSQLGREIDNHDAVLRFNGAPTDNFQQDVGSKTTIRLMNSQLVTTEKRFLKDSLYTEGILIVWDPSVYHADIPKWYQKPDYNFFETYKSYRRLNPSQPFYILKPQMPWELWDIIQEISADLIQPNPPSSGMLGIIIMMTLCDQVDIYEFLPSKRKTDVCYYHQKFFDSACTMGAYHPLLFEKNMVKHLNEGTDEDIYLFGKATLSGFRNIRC
In assay [20] the target is CMP-N-acetylneuraminate-beta-1,4-galactoside alpha-2,3-sialyltransferase (Rattus norvegicus, UniProt Q02734). The assay is described as follows: Inhibition of rat ST3Gal3.
Sequence of CMP-N-acetylneuraminate-beta-1,4-galactoside alpha-2,3-sialyltransferase (Rattus norvegicus, UniProt Q02734) (Q02734 whole entry): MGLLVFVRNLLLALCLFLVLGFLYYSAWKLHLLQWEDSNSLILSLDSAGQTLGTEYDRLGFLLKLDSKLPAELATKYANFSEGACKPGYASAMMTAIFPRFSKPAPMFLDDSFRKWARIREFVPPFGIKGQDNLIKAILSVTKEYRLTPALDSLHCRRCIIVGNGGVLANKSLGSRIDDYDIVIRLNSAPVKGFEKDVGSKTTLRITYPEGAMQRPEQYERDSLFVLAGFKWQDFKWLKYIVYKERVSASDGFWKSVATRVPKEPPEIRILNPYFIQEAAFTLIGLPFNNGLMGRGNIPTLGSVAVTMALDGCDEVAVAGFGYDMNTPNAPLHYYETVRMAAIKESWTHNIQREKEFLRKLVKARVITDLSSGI
The target of assay [21] is T1, Beta-galactoside alpha-2,6-sialyltransferase 1. As to the kind of experiment: Inhibition of human ST6Gal1.

Sequence of Alpha-(1,3)-fucosyltransferase 4 (P22083 whole entry): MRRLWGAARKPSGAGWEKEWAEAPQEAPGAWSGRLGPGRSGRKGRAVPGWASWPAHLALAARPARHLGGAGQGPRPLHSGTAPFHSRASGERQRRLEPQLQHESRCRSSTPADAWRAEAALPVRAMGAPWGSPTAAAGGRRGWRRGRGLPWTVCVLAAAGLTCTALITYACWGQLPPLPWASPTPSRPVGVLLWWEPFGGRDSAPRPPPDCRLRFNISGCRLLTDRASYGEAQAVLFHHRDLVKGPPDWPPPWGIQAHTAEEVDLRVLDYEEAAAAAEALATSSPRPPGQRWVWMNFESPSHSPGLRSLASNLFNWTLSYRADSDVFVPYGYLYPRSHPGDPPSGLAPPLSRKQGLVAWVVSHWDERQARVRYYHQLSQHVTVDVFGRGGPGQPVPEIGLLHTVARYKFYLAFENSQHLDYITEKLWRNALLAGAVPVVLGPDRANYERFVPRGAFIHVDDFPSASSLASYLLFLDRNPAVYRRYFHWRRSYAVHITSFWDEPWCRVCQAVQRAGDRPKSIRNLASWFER

As for `O=C(O)c1cc(O)c(O)c(O)c1` [GALLIC ACID], the 50% inhibitory concentration (IC50) was 19 µM in [1] and 14 µM in assay [2].

`C[C@H](CCC(=O)O)[C@H]1CC[C@H]2[C@@H]3CC[C@@H]4C[C@H](OC(=O)[C@H](CCC(=O)O)Nc5ccc([N+](=O)[O-])c6nonc56)CC[C@]4(C)[C@H]3CC[C@]12C`: the half-inhibitory concentration (IC50) was 1.5 µM in [3] and 0.88 µM in assay [4].

Regarding `c1ccc(-c2nsc(N3CCNCC3)n2)cc1`, the Ki is greater than 15000 µM in assay [5], 5100 µM in assay [6], 800 µM in assay [7] and 6300 µM in assay [8].

With `C[C@@H]([C@H](N)C(=O)N[C@H](C(=O)O)[C@H]1O[C@@H](n2ccc(=O)[nH]c2=O)[C@H](O)[C@@H]1O)[C@H](O)c1ccc(O)cn1` [NIKKOMYCIN], the inhibition constant (Ki) in [9] worked out at 0.16 µM.

In [10], `O=Cc1ccc(-c2cn([C@@H]3O[C@H](COP(=O)(O)OP(=O)(O)O[C@H]4O[C@H](CO)[C@H](O)[C@H](O)[C@H]4O)[C@@H](O)[C@H]3O)c(=O)[nH]c2=O)s1` showed an inhibitory constant (Ki) of 39 µM. This counts as double-digit micromolar.

Consider `C[C@@H]1CC[C@H]2C(C)(C)[C@H](O)CC[C@]2(C)[C@@]12Cc1c(O)cc(C=O)c(C=O)c1O2`, for which the IC50 in assay [11] stood at 0.61 µM; in assay [13], 11.3 µM; in assay [4] it was 6.7 µM; in [14], 20.9 µM; in assay [16] it was 10 µM. Moreover, the Ki in assay [12] is 9.7 µM; in assay [15], 10.7 µM.

Regarding `O=C(NC[C@H]1O[C@@H](n2ccc(=O)[nH]c2=O)[C@H](O)[C@@H]1O)c1cccc(CO[C@@H]2O[C@H](CO)[C@H](O)[C@H](O)[C@H]2O)n1`, the IC50 in assay [17] was 152 µM.

Consider `C[C@]12Cc3cnn(-c4ccncc4)c3C=C1CC[C@@H]1[C@@H]2CC[C@@]2(C)[C@H]1CC[C@]2(O)C(=O)CO`, for which, in assay [18], the half-maximal inhibitory concentration (IC50) is 115 µg/mL (≈ 257 µM). This compound also gave an MIC in the assay on Staphylococcus aureus of 2 µg/mL (≈ 4.47 µM).

As for `O=c1cc(-c2ccc(O)c(O)c2)oc2ccccc12`, the half-inhibitory concentration (IC50) came out at 5.1 µM in assay [19], 1.4 µM in assay [20] and 7.1 µM in assay [21].

As usually defined, the IC50 is the concentration that inhibits the measured activity by half. Lower therefore signals greater potency. By Ki is commonly meant the equilibrium dissociation constant of an inhibitor or competing ligand from its target. A lower Ki goes with tighter binding. For orientation: MIC means the lowest concentration that inhibits growth of the organism.
